The conditions of data set [1]: ODN 14 compared with ODN 1; cited from earlier work.
A further data set relates to Factor VII. The experiment in a line: Factor VII knockdown in mice by FVII siRNA lipid particles. Format: in vivo. Conditions: 40/10/40/10 aminolipid/DSPC/Chol/PEG-S-DMG, IV, C57BL/6 mice, 24 hours post-injection. Here is the method:
Factor VII (FVII), a prominent protein in the coagulation cascade, is synthesized in the liver (hepatocytes) and secreted into the plasma. FVII levels in plasma can be determined by a simple, plate-based colorimetric assay. As such, FVII represents a convenient model for determining siRNA-mediated downregulation of hepatocyte-derived proteins, as well as monitoring plasma concentrations and tissue distribution of the nucleic acid lipid particles and siRNA.
FVII activity was evaluated in FVII siRNA-treated animals at 24 hours after intravenous (bolus) injection in C57BL/6 mice. FVII was measured using a commercially available kit (Biophen FVII Kit™; Aniara Corp., Mason, Ohio), following the manufacturer's instructions at a microplate scale. FVII reduction was determined against untreated control mice, and the results were expressed as % Residual FVII. […]
The MTD for these studies was set as the lowest dose causing >7% decrease in body weight and a>200-fold increase in alanine aminotransferase (ALT), a clinical chemistry marker with good specificity for liver damage in rodents. The ED50 was determined from FVII dose-activity curves.
The ability of various lipid formulations to knockdown Factor VII expression was determined in a liver model using Factor VII siRNA, in order to evaluate the impact of aminolipid linker chemistry. […]

This is an account of results in patent publication US20110117125A1, “COMPOSITIONS AND METHODS FOR THE DELIVERY OF NUCLEIC ACIDS” (TEKMIRA PHARMACEUTICALS CORPORATION, priority 2008, published 2011).

On to “5′-AACC GTT GAG GGG CAT-3′ (DNA AACCGTTGAGGGGCAT; DNA, backbone and methylation of C not given here) [ODN 14]”, for which the “immunostimulatory / biological activity” value in data set [1] is “ODN 14 is a 15-mer oligonucleotide and ODN 1 is the same oligonucleotide having a thymidine added onto the 5′ end making ODN 1 into a 16-mer. No difference in biological activity between ODN 14 and ODN 1 has been detected and both exhibit similar immunostimulatory activity (Mui et al., 2001)”. With “5′-TAACGTTGAGGGGCAT-3 (DNA, backbone and methylation of C not given here) [ODN 1]”, the “immunostimulatory / biological activity” value in data set [1] was “ODN 14 is a 15-mer oligonucleotide and ODN 1 is the same oligonucleotide having a thymidine added onto the 5′ end making ODN 1 into a 16-mer. No difference in biological activity between ODN 14 and ODN 1 has been detected and both exhibit similar immunostimulatory activity (Mui et al., 2001)”. `CCCCC/C=C\C/C=C\CCCCCCCCC1(CCCCCCCC/C=C\C/C=C\CCCCC)OCC(CN(C)C)O1` (stereo not shown) [DLin-K-DMA, 2,2-Dilinoleyl-4-dimethylaminomethyl-[1,3]-dioxolane]: in the data set with Factor VII, the “improvement of dose (mg/kg) to achieve 50% Factor VII reduction versus ester linkage (DLinDAP lipid)” value is recorded as “approximately 100 -fold” and the “improvement of dose (mg/kg) to achieve 50% Factor VII reduction versus ether linkage (DLinDMA lipid)” value was “approximately 10 -fold”.
